# Assay results published in article PMC10066365, “Nemacol is a small molecule inhibitor of C. elegans vesicular acetylcholine transporter with anthelmintic potential” (Nature Communications, 2023).
# Values joined by “and” are separate entries in the source; they are usually repeats but may differ in a detail not shown here. Equal entries are not always repeated.
# Tests used:
# [1] = tested on: Dirofilaria immitis microfilariae; assay: Dirofilaria immitis microfilariae immobility assay (DiroImager, 72 h); conditions: Dirofilaria immitis microfilariae
# Description: We conducted experiments with the Missouri isolate of Dirofilaria immitis in two labs. In the first set of experiments, shown as part of Fig. 3c, D. immitis microfilariae and larval stage 3 (L3) worms were assayed in the laboratories of Bayer Animal Health GmbH (Monheim, Germany). For microfilariae immobility assays, approximately 250 freshly purified microfilariae were cultured in single wells of a 96-well microtiter plate containing supplemented RPMI 1640 medium[68],[69]. […] Microfilariae exposed to medium substituted with 1% DMSO were used as negative controls. Motility of microfilariae was evaluated after 72 h of drug exposure using an image-based approach—DiroImager, developed by Bayer Technology Services. As described in detail in refs. [68],[69], the DiroImager is an automated high-throughput platform that allows for high-resolution optical imaging of an entire 96-well microtiter plate.
# [2] = tested on: C. elegans; assay: C. elegans motor phenotype scoring on solid media (Punc/jerky-unc, coiled, paralyzed), wild-type young adults; assay type: in vivo, Caenorhabditis elegans; conditions: for atypical locomotion (number of animals) / coiled (number of animals) / no phene (number of animals) / paralyzed (number of animals): young adults, 20 animals per trial, single technical replicate; for EC50: Caenorhabditis elegans, any motor phenotype after 1 h on solid media, ± 95% CI, read-out: C. elegans - motor disruption EC50
# [3] = tested on: Dirofilaria immitis L3/L4; assay: Dirofilaria immitis L3/L4 motility assay (DiroImager, 72 h); conditions: Dirofilaria immitis L4
# [4] = 3.75uM, one hour, mean of three biological replicates, third c14 line of each analog
# [5] = 15uM, one hour, mean of three biological replicates, second c14 line of each analog
# [6] = 60uM, one hour, mean of three biological replicates, first c14 line of each analog
SMILES,"% effect (motility), DIROIM MF ([1]; 0.016 µM)","% effect (motility), DIROIM MF ([1]; 0.08 µM)","% effect (motility), DIROIM MF ([1]; 0.4 µM)","% effect (motility), DIROIM MF ([1]; 2 µM)","% effect (motility), DIROIM MF ([1]; 10 µM)",EC50 [2],"% effect (motility), DIROIM L4 ([3]; 10 µM)","% effect (motility), DIROIM L4 ([3]; 50 µM)","any phene (mean % fraction of young adults exhibiting any phenotype: coiled, jerky-Unc or paralyzed) [2, 4]","any phene (mean % fraction of young adults exhibiting any phenotype: coiled, jerky-Unc or paralyzed) [2, 5]","any phene (mean % fraction of young adults exhibiting any phenotype: coiled, jerky-Unc or paralyzed) [2, 6]","% effect (motility), DIROIM L4 ([3]; 2 µM)",further results
Clc1ccc(N2CCN(C3CCCCCC3)CC2)cc1 [Nemacol-57],0%,0%,0%,0%,0%,2.3 µM,10%,15%,–,–,–,–,"atypical locomotion (number of animals) ([2]; 3.75uM, one hour): 12 and 13 and 15; coiled (number of animals) ([2]; 3.75uM, one hour): 3 and 1 and 2 and 7; no phene (number of animals) ([2]; 3.75uM, one hour): 0 and 2 and 3; paralyzed (number of animals) ([2]; 3.75uM, one hour): 5 and 4 and 1 and 0; any phene: mean % fraction of young adults exhibiting any phenotype (coiled, jerky-Unc or paralyzed) ([2]; 3.75uM, one hour, mean of three biological replicates): 92.5%; atypical locomotion (number of animals) ([2]; 15uM, one hour): 0 and 2 and 4 and 6; coiled (number of animals) ([2]; 15uM, one hour): 17 and 15 and 14 and 10 and 11; no phene (number of animals) ([2]; 15uM, one hour): 0; paralyzed (number of animals) ([2]; 15uM, one hour): 3 and 4 and 0 and 6; atypical locomotion (number of animals) ([2]; 60uM, one hour): 0 and 2 and 1; coiled (number of animals) ([2]; 60uM, one hour): 14 and 13 and 12 and 18 and 11; no phene (number of animals) ([2]; 60uM, one hour): 0; paralyzed (number of animals) ([2]; 60uM, one hour): 6 and 5 and 7 and 2 and 8"
"O=[N+]([O-])c1ccc(N2CCN(CC3CC3)CC2)cc1 [Nemacol-28, 1-(cyclopropylmethyl)−4-(4-nitrophenyl)piperazine]",0%,0%,0%,0%,0%,> 60 µM,5%,15%,0%,4.167%,32.5%,5%,–
"c1cc(N2CCN(CC3CCCCC3)CC2)ccn1 [Nemacol-22, 1-(cyclohexylmethyl)−4-(pyridin-4-yl)piperazine]",0%,0%,0%,0%,0%,> 60 µM,0%,10%,0%,10.8333%,24.1667%,0%,–
"N#Cc1ccc(N2CCN(CC3CCCCC3)CC2)cc1 [Nemacol-24, 4-(4-(cyclohexylmethyl)piperazin-1-yl)benzonitrile]",0%,0%,0%,0%,0%,16.3 ± 10.5 µM,25%,45%,8.333%,45.8333%,91.6667%,–,–
